Measured values from patent US11103519B2, “Quinone-methide precursors with bodipy chromophore, method of preparation, biological activity and application in fluorescent labelling” (Rudjer Boskovic Institute, priority 2016, dated 2021).
Where two headings read alike, the source gives them in different places.

Columns and labels:
[1] = system: HCT 116 (colon carcinoma); settings: read-out: IC50, the concentration that causes 50% growth inhibition, HCT116, 72 h incubation, MTT
Protocol: The described assay was used to test the effects of test compounds on the proliferation of various human tumor cell lines, whereby cytostatic and cytotoxic effects on cells can be differentiated. The experiments were carried out on human cell lines, which were derived from 3 tumor types: MCF-7 (breast carcinoma), HCT 116 (colon carcinoma), H 460 (lung carcinoma).
Cell lines were cultured as monolayers and maintained in Dulbecco's modified Eagle medium (DMEM), supplemented with 10% fetal bovine serum (FBS), 2 mM L-glutamine, 100 U/ml penicillin and 100 μg/ml streptomycin in a humidified atmosphere with 5% CO2 at 37° C.
The cell lines were inoculated onto a series of standard 96-well microtiter plates on day 0, at 1×10^4 to 3×10^4 cells/ml, depending on the doubling times of the specific cell line. Test compounds were added next day to the cell lines in five consecutive 10-fold dilutions (10^−8 to 10^−4 M) and incubated for a further 72 hours. Working dilutions were freshly prepared on the day of testing. The solvent (DMSO) was also tested for eventual inhibitory activity by adjusting its concentration to be the same as in working concentrations.
For each cell line one of the plates was left in the dark, while the other was irradiated in a Luzchem reactor (6 lamps 350 nm, 5 min; or 6 lamps 420 nm, 15 min, visible light, 15 min) four hours after the addition of the test compounds and subsequently 24 h and 48 h after the first irradiation, as described above. After 72 hours of incubation the cell growth rate was evaluated by performing the MTT assay (Mossman, Methods Immunol, 1983, 65, 55-63), which detects dehydrogenase activity in viable cells. The MTT Cell Proliferation Assay is a colorimetric assay system, which measures the reduction of a tetrazolium component (MTT) into an insoluble formazan produced by mitochondria of viable cells. For this purpose the substance treated medium was discarded and MTT was added to each well in concentration of 20 μg/40 μl. After four hours of incubation the precipitates were dissolved in 160 μl of dimethylsulphoxide (DMSO). The absorbance (OD, optical density) was measured on a microplate reader at 570 nm. The absorbance is directly proportional to the cell viability. The percentage of growth (PG) of the cell lines was calculated according to one of the following two equations (according to the National Cancer Institute protocols, www.dtp.nci.nih.gov):
If (mean ODtest-mean ODtzero)≥0 then • PG=100×(mean ODtest-mean ODtzero)/(mean ODetrl-meanODtzero).
If (mean ODtest-mean ODtzero)<0 then: • PG=100×(mean ODtest-mean ODtzero)/ODtzero. where:
Mean ODtzero=the average of optical density measurements before exposure of cells to the test compound.
Mean ODtest=the average of optical density measurements after the desired period of time.
Mean ODetrl=the average of optical density measurements after the desired period of time with no exposure of cells to the test compound.
Each test point was performed in quadruplicate in three individual experiments. The results were expressed as IC50, a concentration necessary for 50% of proliferation inhibition. Each result is a mean value from three separate experiments. The IC50 measures the growth inhibitory power of the test agent and represents the concentration that causes 50% growth inhibition. […] Therefore, a “real” value for any of the response parameters is obtained only if at least one of the tested drug concentrations falls above, and likewise at least one falls below the respective reference value. If however, for a given cell line or test agent all of the tested concentrations produce PGs exceeding the respective reference level of effect (e.g. PG value of 50%), then the highest tested concentration is assigned as the default value. In the screening data report the default value is preceded by a “>” sign.

MCF-7 (breast carcinoma) = test: Antiproliferative MTT assay, MCF-7; assay type: cell-based, human; settings: 72 h incubation, read-out: IC50, the concentration that causes 50% growth inhibition
Description: (§1) The absorbance is directly proportional to the cell viability.

H 460 (lung carcinoma) = test: Antiproliferative MTT assay, H 460; assay type: cell-based, human; settings: 72 h incubation, read-out: IC50, the concentration that causes 50% growth inhibition
Description: as §1

| Substance | IC50 ([1]; Not irrad.) [µM] | IC50 ([1]; irradiated 350 nm 3 × 5 min) [µM] | IC50 ([1]; irradiated 420 nm 3 × 15 min) [µM] | IC50 ([1]; irradiated VIS 3 × 15 min) [µM] | IC50 (MCF-7 (breast carcinoma); Not irrad.) [µM] | IC50 (MCF-7 (breast carcinoma); irradiated 350 nm 3 × 5 min) [µM] | IC50 (MCF-7 (breast carcinoma); irradiated 420 nm 3 × 15 min) [µM] | IC50 (MCF-7 (breast carcinoma); irradiated VIS 3 × 15 min) [µM] | IC50 (H 460 (lung carcinoma); Not irrad.) [µM] | IC50 (H 460 (lung carcinoma); irradiated 350 nm 3 × 5 min) [µM] | IC50 (H 460 (lung carcinoma); irradiated 420 nm 3 × 15 min) [µM] | IC50 (H 460 (lung carcinoma); irradiated VIS 3 × 15 min) [µM] |
| --- | --- | --- | --- | --- | --- | --- | --- | --- | --- | --- | --- | --- |
| 4,4-difluoro-8-[3-(N,N-dimethylammoniummethyl)-4-hydroxyphenyl]-4-bora-3a,4a-diaza-s-indacene hydrochloride [Example 2] | > 100 | > 100 | 37 ± 7 | 89 ± 6 | ≥ 100 | ≥ 100 | 25 ± 6 | 32 ± 25 | > 100 | > 100 | 30 ± 18 | 43 ± 6 |
| 4,4-difluoro-1,5,7-trimethyl-343-(N,N-dimethylammoniummethyl)-4-hydroxyphenyl)-8-phenyl-4-bora-3a,4a-diaza-s-indacene hydrochloride [Example 7] | 27 |  |  | 2 | 22 ± 12 |  |  | 2 ± 0.7 | 20 ± 5 |  |  | 2 ± 0.7 |
| 4,4-difluoro-1,3,5,7-tetramethyl-8-[3-(N,N-dimethylammoniummethyl)-4-hydroxyphenyl]-4-bora-3a,4a-diaza-s-indacene hydrochloride [Example 4] | 16 ± 1 | 11 ± 2 | 2 ± 0.4 | 2 ± 0.1 | 13 ± 0.1 | 10 ± 0.6 | 2 ± 0.2 | 1.6 ± 0.01 | 13 ± 0.2 | 5 ± 3 | 1 ± 0.1 | 0.9 ± 0.2 |
